Assay results: patent US7855292B2, “Sulfonamide compounds” (Janssen Pharmaceutica NV, priority 2004, dated 2010)

Target: T1, CCK-1 receptor (Homo sapiens, UniProt P32238)
T1 construct: expressed in transfected cells; host or cells: CHO-K1
T1 sequence (P32238 1-428): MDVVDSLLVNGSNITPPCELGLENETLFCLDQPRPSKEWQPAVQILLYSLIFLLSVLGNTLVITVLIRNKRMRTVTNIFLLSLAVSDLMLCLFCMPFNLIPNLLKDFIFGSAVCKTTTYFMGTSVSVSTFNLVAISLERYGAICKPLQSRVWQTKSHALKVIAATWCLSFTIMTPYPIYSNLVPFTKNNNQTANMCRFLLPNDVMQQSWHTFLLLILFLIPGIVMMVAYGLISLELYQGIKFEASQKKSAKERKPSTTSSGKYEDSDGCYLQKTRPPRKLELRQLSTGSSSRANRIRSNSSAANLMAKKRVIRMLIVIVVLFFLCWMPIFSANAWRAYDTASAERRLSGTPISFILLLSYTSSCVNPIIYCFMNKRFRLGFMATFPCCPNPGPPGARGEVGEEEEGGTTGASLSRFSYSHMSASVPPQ
Experiment: CCK1 binding assay ([125I]-BH-CCK-8S displacement, CHO-K1 membranes)
Conditions: membranes of CHO-K1 cells stably transfected with the CCK-1 receptor; 20 pM [125I]-BH-CCK-8S; 0.3 μM PD-134,308 present; 60 min at 21±3° C.
How it was run: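 Membranes from CHO-K1 cells stably expressing CCK-1 incubated 1 h at 21±3° C with 20 pM [125I]-BH-CCK-8S in HEPES buffer pH 7.2 containing 0.3 μM PD-134,308 to block CCK-2. Bound radioactivity read by gamma counting after filtration. pKi derived via Cheng-Prusoff, with specific binding defined using 2-NAP.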

## O=C(N[C@@H](Cc1ccc(Cl)c(Cl)c1)C(=O)O)c1ccc(I)cc1NS(=O)(=O)c1cccc2nsnc12 [Example 2, (S)-2-[2-(Benzo[1,2,5]thiadiazole-4-sulfonylamino)-4-iodo-benzoylamino]-3-(3,4-dichloro-phenyl)-propionic acid]
  CCK1 pKi: 6.7
